Reference: US8501806B2, “Methods for preventing or reducing colon carcinogenesis” (Nogra Pharma Limited, priority 2008, dated 2013)

Legend:
[1] = tested on: established CT26-derived tumors; assay: Growth of established CT26 xenografts; assay type: in vivo, Balb/c mice; details: subcutaneously 80 mg/kg mouse/day for 2 weeks from day 14
Experimental: CT26 cells (1×10^5 cells in 300 μl PBS 1×) were injected subcutaneously into the flank of Balb/c mice, whose fur was shaved and depilated. Five groups of 10 mice each were implanted with CT26. The first group received daily subcutaneously 300 μl PBS (control), the remaining groups received daily subcutaneously compound 14 at a final dose of 1, 4, 8, or 12 mg/kg/mouse dissolved in 300 μl PBS. Both compound 14 and PBS were administered starting on day 3. Further experimentation was performed to assess whether compound 14 had anti-cancer activity when administered systemically. […] Mice were monitored over the time for weight loss. After 2 weeks, mice were sacrificed, tumors were photographed, then excised and their mass calculated according to the following formula: ½×(short diameter)×(long diameter)×(height). Total extracts were prepared from xenografts and analyzed for cyclin D1 protein content by Western blotting using a commercially available antibody (Santa Cruz Biotechnology). […] After 2 weeks, mice with similar tumor size, determined by caliper measurements, were divided into three groups of 8 mice each. […] Mice were monitored over the time for weight loss. After 2 weeks, mice were sacrificed, tumors were photographed, then excised and their mass calculated as described above. […] Mice were monitored over the time and sacrificed at day 28.

[2] = tested on: HCT-116 cells; assay: CFSE cell proliferation assay, HCT-116 cells; assay type: cell-based, human; details: equivalent concentrations; data not shown
Experimental: All reagents used in Examples 1-3 were from Sigma-Aldrich (Milan, Italy) unless specified. Compounds were dissolved as a 25 mM stock solution in culture medium, and the pH of the solution was adjusted to 7.4, if necessary, with NaOH. The human CRC cell lines, HCT-116 and HT-29 (expressing either wild-type or mutated p53 respectively), were maintained in McCoy's 5A supplemented with 10% fetal bovine serum (FBS), 1% penicillin/streptomycin, and 50 μg/ml gentamycin. The murine CRC cell line, CT26, was maintained in RPMI 1640 medium supplemented with 10% FBS and 1% penicillin/streptomycin.
For cell growth assays, serum-starved HCT-116, HT-29, and CT26 cells were plated in appropriate complete medium at 2×10^5 cells/ml/well in 6-well culture dishes and allowed to adhere overnight. Cells were then labeled with carboxyfluorescein diacetate succinimidyl ester (CFSE) (Invitrogen, Milan Italy) at 37° C. according to the manufacturer's instruction. After 30 minutes, the medium was removed and fresh media containing 0.05% bovine serum albumin (BSA), and increasing doses of 5-ASA or disclosed compounds were added. After 24 hours, cells were collected, washed twice with PBS 1×, and then incubated with 5 μg/ml of PI for 15 minutes, at 4° C. in the dark. CFSE and/or PI-positive cells were determined by flow cytometry (Becton Dickinson, FACSCalibur, Milan, Italy). To determine whether the negative effect of compound 14 (2-methoxy-5-amino-N-hydroxybenzamide) on proliferation was reversible, cells were cultured in the presence or absence of compound 14 (1.5 and 3 mM) for 24 hours (1st culture). Afterwards, cells were either left untreated or extensively washed and cultured with medium in the absence of compound 14 for additional 24 hours (2nd culture). The percentage of proliferating cells was then evaluated by flow cytometry.

Nc1ccc(O)c(C(=O)O)c1 [5-ASA, 5-amino salicylic acid, reference compound]
tumor size of established CT26-derived tumors vs PBS [1]: not 5-ASA significantly reduced

OC[C@@H](O)[C@@H](O)[C@H](O)[C@H](O)CO [mannitol, reference compound]
effect on cell proliferation (osmotic control) [2]: No effect
